The target in one data set is Histamine H1 receptor (Homo sapiens, UniProt P35367). Put plainly: Displacement of [3H]mepyramine from human H1R expressed in Sf9 cell membranes co-expressing RGS4 measured after 60 mins by scintillation counting analysis. Set-up: species or system Membrane.
Data set [1] concerns the target T1, Histamine H3 receptor (Homo sapiens, UniProt Q9Y5N1). Put plainly: Displacement of [3H]UR-PI294 from human SP-FLAG-tagged H3R expressed in HEK293T cells measured after 60 to 120 mins by liquid scintillation counting analysis. The class given is cell-based.
In a further data set the target is Cytochrome P450 3A4 (Homo sapiens, UniProt P08684). Kind of data set: Inhibition of recombinant CYP3A4 (unknown origin) at 10 uM measured after 30 mins by luciferase reporter gene assay. Format: ADME. Conditions: recombinant enzyme, 0.5 h.
Cytochrome P450 3A4, sequence (P08684 whole entry): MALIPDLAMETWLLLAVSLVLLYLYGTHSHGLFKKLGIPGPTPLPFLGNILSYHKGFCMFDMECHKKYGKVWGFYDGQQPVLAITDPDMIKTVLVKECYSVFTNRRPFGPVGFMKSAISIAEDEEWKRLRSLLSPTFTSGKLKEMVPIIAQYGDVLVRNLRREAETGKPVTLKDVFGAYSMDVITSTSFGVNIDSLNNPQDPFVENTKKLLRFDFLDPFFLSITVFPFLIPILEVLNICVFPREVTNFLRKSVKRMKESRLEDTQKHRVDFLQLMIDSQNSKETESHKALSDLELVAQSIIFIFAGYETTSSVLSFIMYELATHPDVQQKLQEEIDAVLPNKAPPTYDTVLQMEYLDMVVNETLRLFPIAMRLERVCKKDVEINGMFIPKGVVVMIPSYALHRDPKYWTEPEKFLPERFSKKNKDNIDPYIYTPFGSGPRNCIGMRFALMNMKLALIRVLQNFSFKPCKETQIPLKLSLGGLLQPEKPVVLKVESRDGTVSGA
The subject of data set [2] is Rattus norvegicus. Put plainly: Anorectic activity in Wistar rat model of diet induced obesity assessed as increase in HDL level at 1 mg/kg/day, ip administered for 28 days measured on day 29 by spectrophotometric method. The class given is functional, organism-based. As to conditions: time 28.0 day.
Data set [3] in a line: Effect on spontaneous locomotor activity in Wistar rat model of diet induced obesity at 1 mg/kg/day, ip administered for 27 days. Format: ADME, organism-based. Conditions: in vivo, 648 h, time 27 day.
Data set [4] has as its system Rattus norvegicus. Kind of data set: Anorectic activity in Wistar rat model of diet induced obesity assessed as reduction in amount of peritoneal fat at 1 mg/kg/day, ip administered for 28 days. The class given is functional, organism-based. Conditions: time 28.0 day.
The subject of data set [5] is Rattus norvegicus. Put plainly: Anorectic activity in Wistar rat model of diet induced obesity assessed as reduction in total cholesterol level at 1 mg/kg/day, ip administered for 28 days measured on day 29 by spectrophotometric method. Format: functional, organism-based. As to conditions: time 28.0 day.
In data set [6] the test system is Rattus norvegicus. Put plainly: Anorectic activity in Wistar rat model of diet induced obesity assessed as reduction in plasma glucose level at 10 mg/kg/day, ip administered for 28 days measured on day 29 by spectrophotometric method. Conditions: time 29.0 day. The class given is functional, organism-based.
Data set [7] relates to Rattus norvegicus. Kind of data set: Anorectic activity in Wistar rat model of diet induced obesity assessed as reduction in plasma glucose level at 1 mg/kg/day, ip administered for 28 days measured on day 29 by spectrophotometric method. Format: functional, organism-based. Conditions: time 28.0 day.
The subject of data set [8] is Rattus norvegicus. Kind of data set: Anorectic activity in Wistar rat model of diet induced obesity assessed as reduction in calorie intake at 1 mg/kg/day, ip administered for 28 days. Conditions: time 28.0 day. The class given is functional, organism-based.
Data set [9] has as its system Rattus norvegicus. Put plainly: Anorectic activity in Wistar rat model of diet induced obesity assessed as increase in HDL level at 10 mg/kg/day, ip administered for 28 days measured on day 29 by spectrophotometric method. The class given is functional, organism-based. As to conditions: time 29.0 day.
Data set [10] relates to Rattus norvegicus. Put plainly: Anorectic activity in Wistar rat model of diet induced obesity assessed as reduction in body weight at 10 mg/kg/day, ip administered for 28 days. Format: functional, organism-based. Conditions: time 28.0 day.
Data set [11] deals with Rattus norvegicus. Kind of data set: Anorectic activity in Wistar rat model of diet induced obesity assessed as reduction in calorie intake at 10 mg/kg/day, ip administered for 28 days. The class given is functional, organism-based. Conditions: time 28.0 day.
Data set [12] deals with Rattus norvegicus. Kind of data set: Anorectic activity in Wistar rat model of diet induced obesity assessed as reduction in total cholesterol level at 10 mg/kg/day, ip administered for 28 days measured on day 29 by spectrophotometric method. The class given is functional, organism-based. Conditions: time 29.0 day.
Data set [13] has as its system Rattus norvegicus. Put plainly: Anorectic activity in Wistar rat model of diet induced obesity assessed as reduction in triglyceride level at 1 to 10 mg/kg/day, ip administered for 28 days measured on day 29 by spectrophotometric method. As to conditions: dose 1-10 mg/kg/day, time 28.0 day. The class given is functional, organism-based.
The nature of data set [14]: Effect on spontaneous locomotor activity in Wistar rat model of diet induced obesity at 1 to 10 mg/kg/day, ip administered for 27 days. The class given is ADME, organism-based. As to conditions: in vivo, 648 h, dose 1-10 mg/kg/day, time 27 day.
Data set [15] deals with Rattus norvegicus. Put plainly: Anorectic activity in Wistar rat model of diet induced obesity assessed as reduction in body weight at 1 mg/kg/day, ip administered for 28 days. The class given is functional, organism-based. Conditions: time 28.0 day.
The subject of data set [16] is Rattus norvegicus. Kind of data set: Anorectic activity in Wistar rat model of diet induced obesity assessed as reduction in amount of peritoneal fat at 10 mg/kg/day, ip administered for 28 days. The class given is functional, organism-based. Conditions: time 28.0 day.
The target of the next data set is Histamine H4 receptor (Homo sapiens, UniProt Q9H3N8). Put plainly: Binding affinity to human H4R.
Histamine H4 receptor, sequence (Q9H3N8 whole entry): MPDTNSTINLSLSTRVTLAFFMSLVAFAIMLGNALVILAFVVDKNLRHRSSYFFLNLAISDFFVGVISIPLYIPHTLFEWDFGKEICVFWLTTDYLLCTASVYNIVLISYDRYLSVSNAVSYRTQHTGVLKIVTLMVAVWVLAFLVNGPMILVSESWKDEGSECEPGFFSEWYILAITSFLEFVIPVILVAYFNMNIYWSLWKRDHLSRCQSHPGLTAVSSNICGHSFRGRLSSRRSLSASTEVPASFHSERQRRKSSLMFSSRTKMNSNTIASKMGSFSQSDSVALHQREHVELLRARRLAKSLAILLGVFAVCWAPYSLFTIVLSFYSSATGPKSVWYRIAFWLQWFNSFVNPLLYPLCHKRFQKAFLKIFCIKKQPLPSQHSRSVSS
The target in data set [17] is T1, Histamine H3 receptor. Kind of data set: Binding affinity to human H3R.

Activity calls are given as the source filed them. The calls are words filed in the database; no cut-off is given here.

T1 sequence (Q9Y5N1 whole entry): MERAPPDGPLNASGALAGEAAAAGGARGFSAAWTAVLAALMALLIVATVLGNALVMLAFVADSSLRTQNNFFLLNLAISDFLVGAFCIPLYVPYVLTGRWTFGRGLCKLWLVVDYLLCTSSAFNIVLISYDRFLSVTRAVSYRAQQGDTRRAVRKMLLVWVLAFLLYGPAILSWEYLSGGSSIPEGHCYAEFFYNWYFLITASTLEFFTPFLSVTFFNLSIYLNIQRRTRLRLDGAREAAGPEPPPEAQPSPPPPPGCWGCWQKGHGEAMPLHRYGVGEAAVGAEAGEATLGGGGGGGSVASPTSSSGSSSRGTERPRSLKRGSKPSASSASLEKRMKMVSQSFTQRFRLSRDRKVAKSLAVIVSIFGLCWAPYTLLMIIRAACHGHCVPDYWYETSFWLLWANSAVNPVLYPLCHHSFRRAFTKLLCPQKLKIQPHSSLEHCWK
Histamine H1 receptor, sequence (P35367 whole entry): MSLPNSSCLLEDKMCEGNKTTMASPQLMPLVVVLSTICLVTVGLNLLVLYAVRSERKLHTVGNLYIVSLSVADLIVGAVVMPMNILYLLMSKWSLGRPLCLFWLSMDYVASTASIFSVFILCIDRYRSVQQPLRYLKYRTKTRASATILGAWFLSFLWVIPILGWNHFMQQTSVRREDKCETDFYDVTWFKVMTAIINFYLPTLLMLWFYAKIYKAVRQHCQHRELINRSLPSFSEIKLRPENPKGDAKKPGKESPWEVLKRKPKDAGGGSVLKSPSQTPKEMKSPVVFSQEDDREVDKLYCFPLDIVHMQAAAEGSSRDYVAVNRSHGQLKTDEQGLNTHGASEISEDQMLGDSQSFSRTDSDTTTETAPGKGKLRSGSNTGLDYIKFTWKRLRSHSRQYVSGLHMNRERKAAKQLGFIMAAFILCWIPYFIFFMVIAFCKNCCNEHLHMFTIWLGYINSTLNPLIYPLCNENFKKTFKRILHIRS

For `O=C(c1ccc(OCCCN2CCN(c3ccncc3)CC2)cc1)C1CC1`, the Ki at Histamine H1 receptor was greater than 10000 nM; on Histamine H3 receptor [1], 3.17 nM. For the same molecule, the “inhibition (INH)” value at Cytochrome P450 3A4 was “Active”.

As to `Clc1cccc(-c2ccc(OCCCN3CCN(c4ccncc4)CC3)cc2)c1`, the results for the Ki at Histamine H1 receptor and on Histamine H3 receptor [1] were 1990 nM and 109 nM, respectively. On Cytochrome P450 3A4, the “inhibition (INH)” value is “Active”.

In the case of `Clc1ccc(-c2ccc(OCCCN3CCN(c4ccncc4)CC3)cc2)cc1`, the Ki on Histamine H1 receptor is 4090 nM; on Histamine H3 receptor [1], 140 nM. In addition, the “inhibition (INH)” value on Cytochrome P450 3A4 was “Active”.

In the case of `c1ccc(Nc2ccc(OCCCN3CCN(c4ccncc4)CC3)cc2)cc1`, the Ki at Histamine H1 receptor worked out at 4220 nM; on Histamine H3 receptor [1] it was 8.43 nM. Besides, the “inhibition (INH)” value at Cytochrome P450 3A4 is “Active”.

For the molecule `c1ccc(Oc2ccc(OCCCN3CCN(c4ccncc4)CC3)cc2)cc1`, the Ki came out at 4570 nM at Histamine H1 receptor and 20.3 nM at Histamine H3 receptor [1]. Further, the “inhibition (INH)” value at Cytochrome P450 3A4 is “Active”.

Turning to `Cc1c(C(=O)NN2CCCCC2)nn(-c2ccc(Cl)cc2Cl)c1-c1ccc(Cl)cc1` [RIMONABANT], the result with Rattus norvegicus [2], in the data set with Rattus norvegicus [4] and with Rattus norvegicus [5] was Active. In [3], the Activity result is “Non-Toxic”.

For the molecule `N#Cc1ccc(-c2ccc(OCCCN3CCN(c4ccncc4)CC3)cc2)cc1`, the outcome with Rattus norvegicus [6], in the data set with Rattus norvegicus [2], with Rattus norvegicus [8], in the data set with Rattus norvegicus [4], with Rattus norvegicus [9] and in the data set on Rattus norvegicus [10] was Active. For the same molecule, the result in the data set with Rattus norvegicus [11], with Rattus norvegicus [12], in the data set with Rattus norvegicus [13], in the data set on Rattus norvegicus [15] and with Rattus norvegicus [16] was Active. The outcome in the data set with Rattus norvegicus [7] was inactive. Besides, the results for the Ki at Histamine H1 receptor and on Histamine H3 receptor [1] were 2900 nM and 7.86 nM, respectively. Besides, at Cytochrome P450 3A4, the “inhibition (INH)” value is “Active”. Besides, the Activity entry in data set [14] is reported as “Non-Toxic”.

For the molecule `O=C(c1ccc(Cl)cc1)c1ccc(OCCCN2CCN(c3ccncc3)CC2)cc1`, the Ki is 6860 nM on Histamine H1 receptor and 23 nM on Histamine H3 receptor [1]. Besides, the “inhibition (INH)” value on Cytochrome P450 3A4 was “Active”.

`Fc1ccc(-c2ccc(OCCCN3CCN(c4ccncc4)CC3)cc2)cc1`: the Ki on Histamine H1 receptor was 3690 nM; at Histamine H3 receptor [1] it was 60.7 nM. Further, at Cytochrome P450 3A4, the “inhibition (INH)” value was “Active”.

Regarding `c1ccc2cc(OCCCN3CCN(c4ccncc4)CC3)ccc2c1`, the Ki on Histamine H1 receptor came to 7420 nM; on Histamine H3 receptor [1], 67.2 nM. Also, at Cytochrome P450 3A4, the “inhibition (INH)” value is recorded as “Active”.

As for `O=C(c1ccc(F)cc1)c1ccc(OCCCN2CCN(c3ccncc3)CC2)cc1`, the Ki is greater than 10000 nM at Histamine H1 receptor and 5.84 nM at Histamine H3 receptor [1]. The “inhibition (INH)” value on Cytochrome P450 3A4 was “Active”.

`c1ccc(Cc2ccc(OCCCN3CCN(c4ccncc4)CC3)cc2)cc1`: the results for the Ki on Histamine H1 receptor and on Histamine H3 receptor [1] were 4240 nM and 17.6 nM, respectively. Further, the “inhibition (INH)” value on Cytochrome P450 3A4 is given as “Active”.

For `Clc1ccc(CCCOCCCN2CCCCC2)cc1` [PITOLISANT], the Ki at Histamine H4 receptor is greater than 100000 nM.

`O=C(c1ccc(OCCCN2CCC(c3ccncc3)CC2)cc1)C1CC1`: the Ki is greater than 10000 nM at Histamine H1 receptor and 7.7 nM at Histamine H3 receptor [1]. The “inhibition (INH)” value on Cytochrome P450 3A4 was “Active”.

At Histamine H3 receptor [17], `CN(C)[C@@H]1CCN(CCCOc2ccc(-c3ccc(C#N)cc3)cc2F)C1` had a Ki of 3.98 nM.

Molecule `CN(C)[C@@H]1CCN(CCCOc2ccc(-c3ccc(C#N)cc3)cc2)C1` gave a Ki on Histamine H3 receptor [17] of 2 nM.

Consider `O=C(c1ccc(OCCCc2cnc[nH]2)cc1)C1CC1` [CIPROXIFAN], for which the “inhibition (INH)” value at Cytochrome P450 3A4 is “Active”.

The record behind these values is ChEMBL document CHEMBL4732109, “Structural modifications in the distal, regulatory region of histamine H receptor antagonists leading to the identification of a potent anti-obesity agent” (Eur J Med Chem, 2021).
